The values that follow come from patent publication US20240103006A1 (Roche Diagnostics Operations, Inc., priority 2021, published 2024).

Series [1] is described as follows: UV-vis spectral properties / extinction coefficients in aqueous buffer. The series is classed as physicochemical. To be noted: probe before addition of Cys. As to the method: Absorption spectra were recorded on a Cary 50 UV-vis spectrometer from Varian. All measurements were performed in 1 cm UV-vis disposable cuvettes (BRAND semi-micro) and air-equilibrated solutions at 25±0.1° C. A total assay volume of 1.0 mL was used for each measurement. UV-vis scan spectra were recorded using following parameters: average time 0.05 s; data interval 1 nm; scan rate 1200 nm/min; with base line correction.
(§1) Stock solutions of assayed compounds (2-5 mM) were prepared in H2O-DMSO (1:1), stored at −20° C., and diluted to 1.0 mM with buffer before use. The L-Cys stock solution (20.0 mM) was freshly prepared in buffer before the measurements. […]
For a measurement, 1000 μL of buffer and 1-50 μL of probe (1.0 mM) were mixed, and then transferred to a cuvette. Absorbance spectra (250-800 nm) were measured against a blank of the buffer. At least six concentrations of each compound were used to calculate extinction coefficients from the slope of probe concentration vs absorbance plots, using MS Excel software (Microsoft).

The nature of series [2]: Cys-response screening by UV-vis (cleavage of acryloyl ester by excess Cys). Particulars: for ε^Cys / λ^Cys: after excess Cys (100 μM), 37° C., 15 min; for SNR: from ε^Cys and ε^blank. As to the method: as §1
In the same manner, ε^Cys was determined from the solutions of probe reacted with an excess of Cys (100 μM). The reactions were performed at 37° C. (incubation time 15 min). Blank reactions were run without addition of Cys.
Spectra recorded in the presence of Cys confirmed a colorimetric response through the cleavage of acryloyl ester. […] Moreover, their spectral profiles were advantageously fulfilling the wavelength requirement for the Cys sensing application in Cedex system (340, 378, 409, 480, 512, 520, 552, 583, 629, 652, 659 and 800 nm).

The nature of series [3]: Evaluation of stability (hydrolysis of probe in buffer, UV-vis). The series is classed as physicochemical. To be noted: 25 mM HEPES pH 7.4, 15.6 μM, 5 h, ε from merocyanine analogues (LZ07: ε from Table 2). On the procedure:
For a measurement, 1000 μL of buffer and 16 μL of probe (1.0 mM) were mixed, and then incubated at +4° C. and at +37° C. for 5 h. The resulting mixtures were transferred to a cuvette, and the absorbance (250-800 nm) was measured. Each measurement was done in triplicate.
[…] Solutions of each probe were monitored by UV-vis for 5 h.

The nature of series [4]: Evaluation of solubility in water. The series is classed as physicochemical. Particulars: for Solubility (by weight) / Solubility (by UV-vis): H2O at RT; for Solubility (by weight): calculated from isolated pellet weight; for Solubility (by UV-vis): supernatant read in 25 mM HEPES pH 7.4. On the procedure:
In the experiments, 5-10 mg of dried material was suspended in 250-500 μL of H2O at RT. The resulting suspension was centrifuged for 10 min at RT (16000 rcf). UV-vis of supernatant were recorded in buffer (25 mM HEPES pH 7.4) at RT. Each measurement was done in triplicate. The pellet was dried in vacuo for 16 h, and then weighed.
The aqueous solubility of probes is another important property for the performance of compounds in biological assays. The inventors determined the solubility in water of the probes according to the invention using UV-vis. First, oversaturated mixtures of each probe were prepared. The mixtures were centrifuged, and then the concentrations in probes of supernatant were examined by UV-vis. To further validate the results, the concentrations were calculated from the isolated pellet weight.

Series [5] can be described thus: Probe performance in Cedex Bio HT: Cys sensing in a feed medium. On the procedure: The rapid kinetic profile, stability and low background signal as obtained were encouraging to further use MF70 for Cys-sensing in Cedex Bio HT. Reagent solution was treated with various Cys-concentrations (0.5-7.6 mM) in a feed medium, which is used for monoclonal antibody production. […] Under these conditions, a reliable response was obtained over the period of one week (Table 5), with corresponding detection limit of 3.6 μM Cys, and limit of blank 2.2 μM Cys.

The structures appear in SMILES notation. In brackets after ≈: the same amount, converted by molar mass. Marks after values point to notes of the source that are not given here.

For the compound `C=CC(=O)Oc1ccc(/C=C/C2=[N+](CCCCS(=O)(=O)[O-])c3ccccc3C2(C)C)cc1` [LZ05, reference compound], in series [1] (25 mM HEPES pH 7.4), the “ε of long-wavelength band of probe” value was found to be 1.3 mM⁻¹ cm⁻¹; the “ε of short-wavelength band(s) of probe” value amounted to 17.3 mM⁻¹ cm⁻¹; the “λmax, long-wavelength band of probe” value was 527 nm; the “λmax, short-wavelength band(s) of probe” value is 389 nm. Besides, in series [2] (25 mM HEPES pH 7.4), the “ε^Cys” value worked out at 31.9 mM⁻¹ cm⁻¹, the “λ^Cys” value is given as 527 nm and the SNR was determined as 12. For the same compound, in series [3], the “Hydrolysis @4° C.” value is on record as 8.4 ± 0.2% and the “Hydrolysis @37° C.” value is 36.9 ± 0.4%. In series [4], the “Solubility (by weight)” value is reported as 12 mM (≈ 5440 µg/mL) and the “Solubility (by UV-vis)” value is recorded as 11.0 ± 1.0 mM (≈ 4990 µg/mL).

As for `C=CC(=O)Oc1ccc(/C=C/C2=[N+](C)c3ccccc3C2(C)C)cc1` [LZ07, reference compound], in series [1] (25 mM HEPES pH 7.4), the “ε of long-wavelength band of probe” value worked out at 0.6 mM⁻¹ cm⁻¹; the “ε of short-wavelength band(s) of probe” value came to 16.9 mM⁻¹ cm⁻¹; the “λmax, long-wavelength band of probe” value is recorded as 520 nm; the “λmax, short-wavelength band(s) of probe” value was 383 nm. Moreover, in series [2] (25 mM HEPES pH 7.4), the “ε^Cys” value came to 31.5 mM⁻¹ cm⁻¹, the “λ^Cys” value is on record as 520 nm and the SNR is given as 16. In series [3], the “Hydrolysis @4° C.” value was 7.3 ± 0.1 % and the “Hydrolysis @37° C.” value is listed as 30.1 ± 0.2 %. Besides, in series [4], the “Solubility (by weight)” value is reported as 17 mM and the “Solubility (by UV-vis)” value stood at 15.4 ± 1.5 mM.

For `C=CC(=O)Oc1c(C)cc(/C=C/C2=[N+](CCCCS(=O)(=O)[O-])c3ccccc3C2(C)C)cc1C` [MF59], in series [1] (25 mM HEPES pH 7.4), the “ε of long-wavelength band of probe” value amounted to 0.7 mM⁻¹ cm⁻¹; the “ε of short-wavelength band(s) of probe” value worked out at 16.7 mM⁻¹ cm⁻¹; the “λmax, long-wavelength band of probe” value is 550 nm; the “λmax, short-wavelength band(s) of probe” value is 391 nm. Further, in series [2] (25 mM HEPES pH 7.4), the “ε^Cys” value was determined as 17.9 mM⁻¹ cm⁻¹, the “λ^Cys” value is 550 nm and the SNR is reported as 20. Further, in series [2] (same buffer at pH 8.0), the “ε^Cys” value was 52.9 mM⁻¹ cm⁻¹, the “λ^Cys” value amounted to 550 nm and the SNR is given as 44**. Moreover, in series [3], the “Hydrolysis @4° C.” value was 1.2 ± 0.0% and the “Hydrolysis @37° C.” value is given as 4.7 ± 0.1%. Moreover, in series [4], the “Solubility (by weight)” value is recorded as 2 mM (≈ 963 µg/mL) and the “Solubility (by UV-vis)” value is listed as 5.8 ± 0.2 mM (≈ 2790 µg/mL).

For the compound `C=CC(=O)Oc1ccc(/C=C/C2=[N+](CCCCS(=O)(=O)O)c3ccccc3C2(C)C)cc1S(=O)(=O)[O-]` [MF65], in series [1] (25 mM HEPES pH 7.4), the “ε of long-wavelength band of probe” value is 1.2 mM⁻¹ cm⁻¹; the “ε of short-wavelength band(s) of probe” value is 17.7 mM⁻¹ cm⁻¹; the “λmax, long-wavelength band of probe” value is given as 528 nm; the “λmax, short-wavelength band(s) of probe” value is listed as 381 nm. For the same compound, in series [2] (25 mM HEPES pH 7.4), the “ε^Cys” value is 44.3 mM⁻¹ cm⁻¹, the “λ^Cys” value is reported as 528 nm and the SNR turned out to be 16. Moreover, in series [3], the “Hydrolysis @4° C.” value came to 7.2 ± 0.2% and the “Hydrolysis @37° C.” value is 28.9 ± 1.4%.

As for `C=CC(=O)Oc1c(C)cc(/C=C/C2=[N+](CCCS(=O)(=O)O)c3ccc(S(=O)(=O)[O-])cc3C2(C)C)cc1C` [MF70], in series [1] (25 mM HEPES pH 7.4), the “ε of short-wavelength band(s) of probe” value was found to be 21.9 mM⁻¹ cm⁻¹ and the “λmax, short-wavelength band(s) of probe” value was 400 nm. Further, in series [1] (same buffer at pH 8.0), the “ε of short-wavelength band of probe” value amounted to 16.6 mM⁻¹ cm⁻¹ and the “λmax, short-wavelength band of probe” value is 400 nm. For the same compound, in series [2] (25 mM HEPES pH 7.4), the “ε^Cys” value amounted to 23.6 mM⁻¹ cm⁻¹, the “λ^Cys” value worked out at 556 nm and the SNR is on record as 118. In series [2] (same buffer at pH 8.0), the “ε^Cys” value was determined as 55.8 mM⁻¹ cm⁻¹, the “λ^Cys” value is reported as 556 nm and the SNR was 140**. Besides, in series [3], the “Hydrolysis @4° C.” value is recorded as 0.2 ± 0.0% and the “Hydrolysis @37° C.” value was 0.8 ± 0.0%. Moreover, in series [4], the “Solubility (by weight)” value was at least 47 mM and the “Solubility (by UV-vis)” value was at least 41 mM. Besides, in series [4] (in comparison to LZ05 and MF59), the “aqueous solubility (in words)” value is on record as “highly water-soluble”. In series [5], this compound registered a detection limit of 3.6 μM Cys and a limit of blank of 2.2 μM Cys.

In the case of `C=CC(=O)Oc1c(C)cc(/C=C/C2=[N+](C)c3ccccc3C2(C)C)cc1C` [MF71], in series [1] (25 mM HEPES pH 7.4), the “ε of long-wavelength band of probe” value is 0.6 mM⁻¹ cm⁻¹; the “ε of short-wavelength band(s) of probe” value is 29.1 mM⁻¹ cm⁻¹; the “λmax, long-wavelength band of probe” value is on record as 546 nm; the “λmax, short-wavelength band(s) of probe” value is recorded as 387 nm. Further, in series [1] (same buffer at pH 8.0), the “ε of long-wavelength band of probe” value was found to be 0.8 mM⁻¹ cm⁻¹; the “ε of short-wavelength band of probe” value is 25.7 mM⁻¹ cm⁻¹; the “λmax, long-wavelength band of probe” value is reported as 546 nm; the “λmax, short-wavelength band of probe” value was found to be 385 nm. Moreover, in series [2] (25 mM HEPES pH 7.4), the “ε^Cys” value is 33.7 mM⁻¹ cm⁻¹, the “λ^Cys” value came to 547 nm and the SNR is listed as 48. Moreover, in series [2] (same buffer at pH 8.0), the “ε^Cys” value worked out at 69.6 mM⁻¹ cm⁻¹, the “λ^Cys” value is listed as 547 nm and the SNR was 53**. Moreover, in series [3], the “Hydrolysis @4° C.” value is given as 1.0 ± 0.1% and the “Hydrolysis @37° C.” value is 2.3 ± 0.2%.

As for `C=CC(=O)Oc1c(OC)cc(/C=C/C2=[N+](CCCCS(=O)(=O)[O-])c3ccccc3C2(C)C)cc1OC` [MF72], in series [1] (25 mM HEPES pH 7.4), the “ε of short-wavelength band(s) of probe” value turned out to be 14.2 mM⁻¹ cm⁻¹ and the “λmax, short-wavelength band(s) of probe” value is on record as 396 nm. Moreover, in series [2] (25 mM HEPES pH 7.4), the “ε^Cys” value amounted to 31.0 mM⁻¹ cm⁻¹, the “λ^Cys” value came out at 575 nm and the SNR stood at 103. Moreover, in series [3], the “Hydrolysis @4° C.” value turned out to be 0.8 ± 0.1% and the “Hydrolysis @37° C.” value amounted to 2.8 ± 0.1%.
